Measurements as given in ChEMBL document CHEMBL1201862, “PubChem BioAssay data set” (2004).
Calls of active or inactive are those of the source.

How the values were obtained:
[1] = target: T1, Voltage-gated N-type calcium channel alpha-1B subunit/Amyloid beta A4 precursor protein-binding family A member 1 (Homo sapiens, UniProt Q00975+Q02410); format: protein assay
Orexin receptor type 2 [2] = target: T2, Orexin receptor type 2 (Homo sapiens, UniProt O43614); assay: Counterscreen assay for antagonists of the orexin 1 receptor (OX1R; HCRTR1): Homogeneous Time Resolved Fluorescence (HTRF)-based cell-based dose response assay for antagonists of the orexin 2 receptor (OX2R; HCRTR2), run by assay provider.; format: functional
T2 sequence (O43614 whole entry): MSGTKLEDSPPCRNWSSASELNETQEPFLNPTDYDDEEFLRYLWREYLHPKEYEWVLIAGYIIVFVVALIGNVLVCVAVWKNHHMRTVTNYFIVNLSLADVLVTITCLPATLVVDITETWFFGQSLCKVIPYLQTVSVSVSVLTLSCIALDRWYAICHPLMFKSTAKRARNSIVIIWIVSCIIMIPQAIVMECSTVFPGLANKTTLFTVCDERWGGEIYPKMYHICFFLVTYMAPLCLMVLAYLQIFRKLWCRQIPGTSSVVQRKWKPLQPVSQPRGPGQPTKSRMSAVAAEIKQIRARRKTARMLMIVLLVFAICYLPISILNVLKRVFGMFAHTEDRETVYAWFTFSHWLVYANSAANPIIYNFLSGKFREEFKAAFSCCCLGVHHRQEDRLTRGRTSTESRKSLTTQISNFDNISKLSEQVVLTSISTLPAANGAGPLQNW

[3] = target: T1, Voltage-gated N-type calcium channel alpha-1B subunit/Amyloid beta A4 precursor protein-binding family A member 1; format: protein assay; remark: listed apart in the source
CHO-K1 = assay: (§1) Counterscreen for antagonists of the orexin 1 receptor (OX1R; HCRTR1): Homogeneous time resolved fluorescence (HTRF)-based cell-based dose response assay to identify antagonists of the parental CHO-K1 cell line. [Related pubchem assays (depositor defined):AID434989, AID435008, AID463079, AID485270, AID492963, AID492964, AID492965, AID493232, AID504699, AID504701]; format: functional; settings: Cricetulus griseus
Trypsin = Trypsin (Sus scrofa, UniProt P00761); assay: porcine trypsin inhibitors, dose response, selectivity assay for Rce1 protease inhibitor project, biochemical, quenched peptide fluorescence, cherry-pick (AID 488789)
[4] = as §1, with “Fluorescence-based” for “Homogeneous time resolved fluorescence (HTRF)-based”, “cell-based high throughput” for “cell-based”, “CHO” for “CHO-K1”; format: functional
[5] = target: T3, Orexin/Hypocretin receptor type 1 (Homo sapiens, UniProt O43613); assay: Homogeneous Time Resolved Fluorescence (HTRF)-based cell-based high throughput dose response assay for antagonists of the orexin 1 receptor (OX1R; HCRTR1). [Related pubchem assays (depositor defined):AID434989, AID435008, AID463079, AID485270, AID492963, AID492964, AID492965, AID493232, AID504717, AID504718]; format: functional
T3 sequence (O43613 whole entry): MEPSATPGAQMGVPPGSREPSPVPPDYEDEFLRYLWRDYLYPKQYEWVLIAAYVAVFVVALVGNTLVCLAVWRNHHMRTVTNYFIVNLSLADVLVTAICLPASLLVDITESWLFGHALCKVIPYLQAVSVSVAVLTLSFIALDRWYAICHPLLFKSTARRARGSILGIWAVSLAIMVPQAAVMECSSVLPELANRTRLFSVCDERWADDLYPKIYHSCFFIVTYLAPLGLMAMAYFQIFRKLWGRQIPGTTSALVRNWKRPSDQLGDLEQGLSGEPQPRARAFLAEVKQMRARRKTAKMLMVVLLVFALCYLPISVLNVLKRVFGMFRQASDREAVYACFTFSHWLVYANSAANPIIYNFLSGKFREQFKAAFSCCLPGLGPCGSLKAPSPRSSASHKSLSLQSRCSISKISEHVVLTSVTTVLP

[6] = target: T3, Orexin/Hypocretin receptor type 1; assay: Fluorescence-based cell-based high throughput dose response assay for antagonists of the orexin 1 receptor (OX1R; HCRTR1). [Related pubchem assays (depositor defined):AID434989, AID435008, AID463079, AID485270, AID492963, AID492964, AID492965, AID493232, AID504717, AID504718]; format: functional
Orexin receptor type 2 [7] = target: T2, Orexin receptor type 2; assay: Counterscreen assay for antagonists of the orexin 1 receptor (OX1R; HCRTR1): Fluorescence-based cell-based dose response assay for antagonists of the orexin 2 receptor (OX2R; HCRTR2), run by assay provider.; format: functional
[8] = target: T4, High affinity choline transporter 1 (Homo sapiens, UniProt Q9GZV3); assay: CHT inhibitors, dose response, cell-based, 5-point CRC, membrane potential dye (AID 504840); format: functional
T4 sequence (Q9GZV3 whole entry): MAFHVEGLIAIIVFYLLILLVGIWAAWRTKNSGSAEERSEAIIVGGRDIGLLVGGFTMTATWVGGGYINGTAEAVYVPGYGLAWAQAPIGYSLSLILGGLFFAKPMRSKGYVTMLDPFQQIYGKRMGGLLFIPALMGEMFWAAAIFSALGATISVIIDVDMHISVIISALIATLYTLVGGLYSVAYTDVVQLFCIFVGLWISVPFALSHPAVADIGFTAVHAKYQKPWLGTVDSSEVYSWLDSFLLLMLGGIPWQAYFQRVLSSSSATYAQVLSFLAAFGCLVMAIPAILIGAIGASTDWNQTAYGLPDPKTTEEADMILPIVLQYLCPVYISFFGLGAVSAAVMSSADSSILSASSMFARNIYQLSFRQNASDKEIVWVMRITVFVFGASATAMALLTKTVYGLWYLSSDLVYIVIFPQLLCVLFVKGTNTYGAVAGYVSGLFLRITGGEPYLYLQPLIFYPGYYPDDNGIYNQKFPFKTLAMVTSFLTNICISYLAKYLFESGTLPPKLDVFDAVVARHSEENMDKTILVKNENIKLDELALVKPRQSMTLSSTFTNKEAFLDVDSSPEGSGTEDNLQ

[9] = target: T4, High affinity choline transporter 1; assay: CHT inhibitors, dose response, cell-based, 10-point CRC, membrane potential dye (AID 588401); format: functional;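 also: membrane potential dye fluorescence of choline-evoked depolarization via CHT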
[10] = target: T5, Polyadenylate-binding protein 1 (Homo sapiens, UniProt P11940); assay: PABP1 MLLE–PAM2 binding inhibitor potency, dose response, biochemical, fluorescence polarization, FITC-PAM2 peptide (AID 602259); format: functional; settings: read-out: IC50_Mean
[11] = target: T5, Polyadenylate-binding protein 1; assay: PABP1 MLLE–PAM2 interaction inhibitors, dose response, miRNA deadenylation inhibitor project, biochemical, fluorescence polarization, Cy5-PAM2 peptide, secondary (AID 602260); format: functional; settings: read-out: IC50_Mean
[12] = target: Mitochondrial peptide methionine sulfoxide reductase (Bos taurus, UniProt P54149); assay: Absorbance-based biochemical high throughput dose response assay for activators of Methionine sulfoxide reductase A (MsrA).; format: functional
Nonstructural protein 1 = Nonstructural protein 1 (Influenza A virus, UniProt Q194T2); format: functional, Influenza A virus (A/California/07/2009(H1N1))
[13] = AlphaScreen signal interference compounds, dose response, artefact control for ARNT-TACC3 interaction inhibitor project, biochemical, luminescence, cherry-pick (AID 651705); format: functional;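 also: AlphaScreen bead proximity signal that flags compounds interfering with the detection technology; potency reflects signal decrease which marks the compound as an assay artifact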
[14] = target: Potassium voltage-gated channel subfamily KQT member 2 (Rattus norvegicus, UniProt O88943); assay: KCNQ2 potassium channel inhibitors, dose response, cell-based, automated electrophysiology, set II, rat KCNQ2 (AID 588637); format: functional
Melanocortin receptor 4 = Melanocortin receptor 4 (Homo sapiens, UniProt P32245); format: functional, cell-based;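 also: Cell-based assay with luminescence read-out, confirmatory dose-response testing for agonist activity of biased ligands at MC4R; human U2OS cells with tagged receptor and beta-arrestin; potency of agonists that increase receptor coupling to beta-arrestin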
[15] = target: Melanin-concentrating hormone receptor 1 (Homo sapiens, UniProt Q99705); assay: Late-stage fluorescence-based counterscreen for antagonists of the G-protein coupled receptor 7 (GPR7): cell-based dose response assay to identify antagonists of the melanin-concentrating hormone receptor 1 (MCHR1) Set 6.; format: functional
[16] = target: T6, Neuropeptides B/W receptor type 1 (Homo sapiens, UniProt P48145); assay: GPR7 antagonist potency, late-stage follow-up, cell-based, fluorescence, dose response, set 6 (AID 588583); format: functional
T6 sequence (P48145 whole entry): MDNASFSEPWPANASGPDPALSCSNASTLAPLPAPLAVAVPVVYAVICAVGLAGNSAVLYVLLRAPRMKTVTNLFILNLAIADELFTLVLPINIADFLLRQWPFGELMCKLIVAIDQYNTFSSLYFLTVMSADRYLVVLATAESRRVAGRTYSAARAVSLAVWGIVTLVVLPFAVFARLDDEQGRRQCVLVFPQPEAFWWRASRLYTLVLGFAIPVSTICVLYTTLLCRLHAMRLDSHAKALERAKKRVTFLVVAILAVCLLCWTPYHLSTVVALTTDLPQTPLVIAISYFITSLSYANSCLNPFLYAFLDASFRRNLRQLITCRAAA

[17] = HEp-2 cell cytotoxicity, dose response, cytotoxicity control for RSV inhibitor project, HTS (AID 2410); format: functional; settings: human respiratory syncytial virus
[18] = target: Heat shock protein HSP 90-alpha (Homo sapiens, UniProt P07900); format: functional, organism-based
[19] = target: Aryl hydrocarbon receptor (Homo sapiens, UniProt P35869); settings: Potency;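 also: confirmatory quantitative high-throughput screen measuring activation of the AhR signaling pathway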

T1 sequence (Q00975 whole entry): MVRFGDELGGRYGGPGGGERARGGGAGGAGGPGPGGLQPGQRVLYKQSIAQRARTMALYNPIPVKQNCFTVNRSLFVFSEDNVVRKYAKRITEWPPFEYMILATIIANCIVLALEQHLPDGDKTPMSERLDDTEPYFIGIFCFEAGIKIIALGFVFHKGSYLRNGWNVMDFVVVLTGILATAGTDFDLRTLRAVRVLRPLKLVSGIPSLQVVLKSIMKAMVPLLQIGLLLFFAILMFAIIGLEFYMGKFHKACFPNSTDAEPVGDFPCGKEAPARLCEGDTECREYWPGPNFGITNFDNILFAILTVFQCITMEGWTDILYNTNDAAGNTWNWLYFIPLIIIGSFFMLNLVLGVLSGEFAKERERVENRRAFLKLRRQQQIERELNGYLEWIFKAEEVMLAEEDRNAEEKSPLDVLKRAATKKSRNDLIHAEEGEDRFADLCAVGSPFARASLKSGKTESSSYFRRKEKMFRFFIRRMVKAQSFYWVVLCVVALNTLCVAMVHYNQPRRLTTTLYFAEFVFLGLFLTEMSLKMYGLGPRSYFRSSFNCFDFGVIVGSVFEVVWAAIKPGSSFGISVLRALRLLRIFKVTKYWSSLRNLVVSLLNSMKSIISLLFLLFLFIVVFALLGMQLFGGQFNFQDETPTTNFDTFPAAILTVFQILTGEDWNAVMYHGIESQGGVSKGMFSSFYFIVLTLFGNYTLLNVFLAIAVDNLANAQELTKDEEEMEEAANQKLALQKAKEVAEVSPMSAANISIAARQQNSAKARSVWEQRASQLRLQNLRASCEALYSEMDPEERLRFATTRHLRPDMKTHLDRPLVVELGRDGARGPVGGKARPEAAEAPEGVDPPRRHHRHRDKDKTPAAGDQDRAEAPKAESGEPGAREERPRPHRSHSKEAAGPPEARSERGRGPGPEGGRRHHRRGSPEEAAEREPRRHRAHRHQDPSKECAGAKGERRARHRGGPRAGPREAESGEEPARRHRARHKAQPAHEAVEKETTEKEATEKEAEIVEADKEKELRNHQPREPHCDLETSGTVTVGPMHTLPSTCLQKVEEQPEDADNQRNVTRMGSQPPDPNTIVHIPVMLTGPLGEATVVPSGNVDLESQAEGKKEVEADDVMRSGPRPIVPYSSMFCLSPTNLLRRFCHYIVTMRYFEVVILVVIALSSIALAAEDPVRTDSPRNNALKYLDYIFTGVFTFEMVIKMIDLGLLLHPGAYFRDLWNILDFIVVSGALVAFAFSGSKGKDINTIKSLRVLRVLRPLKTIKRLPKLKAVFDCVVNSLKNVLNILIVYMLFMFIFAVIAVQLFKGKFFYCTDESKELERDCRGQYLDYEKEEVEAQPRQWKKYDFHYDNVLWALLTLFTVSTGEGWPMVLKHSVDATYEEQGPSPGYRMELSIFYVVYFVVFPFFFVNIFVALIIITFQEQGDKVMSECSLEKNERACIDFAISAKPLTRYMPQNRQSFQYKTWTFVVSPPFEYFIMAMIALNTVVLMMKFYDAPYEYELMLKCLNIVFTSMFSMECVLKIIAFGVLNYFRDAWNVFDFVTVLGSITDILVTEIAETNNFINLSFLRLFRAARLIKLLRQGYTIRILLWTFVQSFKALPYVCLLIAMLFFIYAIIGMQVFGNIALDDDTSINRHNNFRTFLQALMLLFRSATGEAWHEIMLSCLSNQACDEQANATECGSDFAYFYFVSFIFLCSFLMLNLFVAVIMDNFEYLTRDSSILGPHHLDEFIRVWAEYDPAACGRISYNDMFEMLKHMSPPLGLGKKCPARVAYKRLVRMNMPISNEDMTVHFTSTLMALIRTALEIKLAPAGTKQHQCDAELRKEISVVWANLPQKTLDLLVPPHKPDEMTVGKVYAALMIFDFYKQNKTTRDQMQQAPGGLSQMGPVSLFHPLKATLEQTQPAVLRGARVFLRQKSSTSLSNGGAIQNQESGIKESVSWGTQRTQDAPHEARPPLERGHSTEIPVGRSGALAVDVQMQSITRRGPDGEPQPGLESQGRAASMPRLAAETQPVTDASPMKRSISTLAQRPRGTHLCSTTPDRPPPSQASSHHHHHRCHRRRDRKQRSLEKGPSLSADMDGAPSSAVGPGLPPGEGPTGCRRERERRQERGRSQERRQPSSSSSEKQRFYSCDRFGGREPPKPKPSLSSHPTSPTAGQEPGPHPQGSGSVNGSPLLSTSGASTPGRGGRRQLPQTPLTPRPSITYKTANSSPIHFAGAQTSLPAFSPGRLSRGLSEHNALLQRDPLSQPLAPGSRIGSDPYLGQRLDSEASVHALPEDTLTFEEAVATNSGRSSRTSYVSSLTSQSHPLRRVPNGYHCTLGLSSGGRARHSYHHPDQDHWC
T1 sequence (Q02410 whole entry): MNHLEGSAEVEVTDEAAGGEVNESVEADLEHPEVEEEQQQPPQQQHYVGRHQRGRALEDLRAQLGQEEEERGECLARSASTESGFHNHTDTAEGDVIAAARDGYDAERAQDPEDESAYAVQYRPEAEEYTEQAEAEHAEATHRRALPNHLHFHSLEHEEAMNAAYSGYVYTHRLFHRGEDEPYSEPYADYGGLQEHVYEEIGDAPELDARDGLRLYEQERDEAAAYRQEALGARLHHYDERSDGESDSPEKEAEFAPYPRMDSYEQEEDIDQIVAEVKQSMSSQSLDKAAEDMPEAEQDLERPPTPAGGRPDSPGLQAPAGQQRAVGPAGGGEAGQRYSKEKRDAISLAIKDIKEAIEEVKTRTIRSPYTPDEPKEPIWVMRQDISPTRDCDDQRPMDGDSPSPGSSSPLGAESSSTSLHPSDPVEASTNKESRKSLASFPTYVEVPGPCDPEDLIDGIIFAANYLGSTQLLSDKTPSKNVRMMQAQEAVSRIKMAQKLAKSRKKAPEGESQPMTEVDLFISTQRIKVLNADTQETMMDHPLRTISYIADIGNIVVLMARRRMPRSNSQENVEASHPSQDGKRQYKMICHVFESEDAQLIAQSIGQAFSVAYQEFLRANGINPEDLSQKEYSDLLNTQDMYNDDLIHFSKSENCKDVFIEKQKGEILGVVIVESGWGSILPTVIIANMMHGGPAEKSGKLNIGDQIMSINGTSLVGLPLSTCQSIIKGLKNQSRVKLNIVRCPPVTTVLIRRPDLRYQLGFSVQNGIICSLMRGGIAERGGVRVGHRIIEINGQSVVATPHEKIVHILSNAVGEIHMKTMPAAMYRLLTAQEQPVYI
T5 sequence (P11940 whole entry): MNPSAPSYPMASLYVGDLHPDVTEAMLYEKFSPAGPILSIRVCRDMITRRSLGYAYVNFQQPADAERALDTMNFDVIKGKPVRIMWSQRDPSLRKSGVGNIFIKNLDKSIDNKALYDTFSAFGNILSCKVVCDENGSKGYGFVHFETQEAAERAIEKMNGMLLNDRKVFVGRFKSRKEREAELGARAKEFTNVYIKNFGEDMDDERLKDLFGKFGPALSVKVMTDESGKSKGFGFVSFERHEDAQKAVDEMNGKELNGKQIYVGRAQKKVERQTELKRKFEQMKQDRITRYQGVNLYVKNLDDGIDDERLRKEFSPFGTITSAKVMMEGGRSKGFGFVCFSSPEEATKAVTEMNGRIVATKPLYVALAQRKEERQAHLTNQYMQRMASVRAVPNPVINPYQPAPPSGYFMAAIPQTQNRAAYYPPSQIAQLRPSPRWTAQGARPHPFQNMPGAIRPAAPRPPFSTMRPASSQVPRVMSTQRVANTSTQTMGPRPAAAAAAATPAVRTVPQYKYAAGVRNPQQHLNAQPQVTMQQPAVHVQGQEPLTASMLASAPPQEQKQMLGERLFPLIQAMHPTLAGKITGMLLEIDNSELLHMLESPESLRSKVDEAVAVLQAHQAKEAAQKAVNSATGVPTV
Sequence of Melanin-concentrating hormone receptor 1 (Q99705 whole entry): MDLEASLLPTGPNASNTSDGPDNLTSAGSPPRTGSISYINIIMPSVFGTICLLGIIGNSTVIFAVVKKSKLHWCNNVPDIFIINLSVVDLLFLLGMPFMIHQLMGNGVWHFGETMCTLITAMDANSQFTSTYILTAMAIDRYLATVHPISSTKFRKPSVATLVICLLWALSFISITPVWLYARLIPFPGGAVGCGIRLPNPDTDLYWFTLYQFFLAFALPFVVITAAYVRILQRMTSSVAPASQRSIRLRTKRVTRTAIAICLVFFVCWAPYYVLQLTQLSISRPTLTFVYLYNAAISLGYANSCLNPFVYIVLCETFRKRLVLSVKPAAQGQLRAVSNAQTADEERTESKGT
Sequence of Trypsin (P00761 whole entry): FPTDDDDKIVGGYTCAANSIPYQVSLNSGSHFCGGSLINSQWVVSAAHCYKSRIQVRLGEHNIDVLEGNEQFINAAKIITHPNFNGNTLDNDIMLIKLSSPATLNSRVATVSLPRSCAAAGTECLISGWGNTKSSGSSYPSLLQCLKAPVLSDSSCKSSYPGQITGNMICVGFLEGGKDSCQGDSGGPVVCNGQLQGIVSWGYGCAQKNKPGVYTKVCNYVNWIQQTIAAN
Sequence of Nonstructural protein 1 (Q194T2 whole entry): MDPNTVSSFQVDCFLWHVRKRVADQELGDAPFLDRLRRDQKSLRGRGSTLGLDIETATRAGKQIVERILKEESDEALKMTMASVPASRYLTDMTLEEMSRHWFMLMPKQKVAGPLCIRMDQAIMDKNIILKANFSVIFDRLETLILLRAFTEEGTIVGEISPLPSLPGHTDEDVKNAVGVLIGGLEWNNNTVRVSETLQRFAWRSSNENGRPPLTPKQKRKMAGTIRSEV
Sequence of Melanocortin receptor 4 (P32245 whole entry): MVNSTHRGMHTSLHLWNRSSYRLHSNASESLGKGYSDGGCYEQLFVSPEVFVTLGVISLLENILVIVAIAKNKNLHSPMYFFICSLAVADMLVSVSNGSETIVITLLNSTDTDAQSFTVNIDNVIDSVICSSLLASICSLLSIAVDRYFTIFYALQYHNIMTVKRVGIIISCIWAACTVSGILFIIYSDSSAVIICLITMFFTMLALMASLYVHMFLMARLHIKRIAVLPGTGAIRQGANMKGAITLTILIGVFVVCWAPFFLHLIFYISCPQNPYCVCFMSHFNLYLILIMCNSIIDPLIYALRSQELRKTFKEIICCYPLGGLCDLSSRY

O=C(CN1C(=O)/C(=C\c2cccc(Br)c2)Oc2ccccc21)NCC1CCCO1 (stereo not drawn)
IC50 [1]: > 50 µM (inactive) | IC50 (Orexin receptor type 2 [2]): > 50 µM (inactive) | IC50 [3]: 4.98 µM (active) | IC50 (CHO-K1): > 66.2 µM (inactive) | AC50 (Trypsin): 4.3 µM (active) | IC50 [4]: > 49.8 µM (inactive) | IC50 [5]: 0.314 µM (active) | IC50 [6]: 1.08 µM (active) | IC50 (Orexin receptor type 2 [7]): > 88.8 µM (inactive)

O=C(CSc1c2c(nc3ccc(Cl)cc13)CCCC2)NCCCN1CCOCC1
IC50 [8]: 4.29 µM (active) | IC50 [9]: 4.47 µM (active)

CC(C)CNc1nc(S)nc(N(C)C)n1
IC50 [10]: > 66 µM (inactive) | IC50 [11]: > 66 µM (inactive) | EC50 [12]: > 104 µM (inactive)

O=C(COC(=O)c1ccccn1)c1cccc(Br)c1
IC50 (Nonstructural protein 1): 25.6 µM (active) | AC50 [13]: 91 µM (active)

COc1ccccc1CC(=O)NC1CCCc2ccccc21 (stereo not drawn)
IC50 [14]: 9.28 µM (active)

Cc1cccc(NC(=O)[C@@H]2CCCN2S(=O)(=O)c2ccc(Cl)cc2)c1
IC50 (Orexin receptor type 2 [2]): 0.37 µM (active) | IC50 (CHO-K1): > 66.2 µM (inactive) | IC50 [4]: > 49.7 µM (inactive) | IC50 [5]: 0.153 µM (active) | IC50 [6]: 4.23 µM (active) | IC50 (Orexin receptor type 2 [7]): 1.4 µM (active)

O=C(NC(c1ccccc1)c1ccc2ccccc2n1)C1CCN(CCOc2ccc(Cl)cc2Cl)CC1 (stereo not drawn)
EC50 (Melanocortin receptor 4): > 89.2 µM (inactive)

COc1ccc(Oc2c(CCl)cnn(Cc3cccc4ccccc34)c2=O)cc1
IC50 [15]: 2.87 µM (active) | IC50 [16]: 2.87 µM (active)

Oc1c(Br)cc(Br)cc1/C=N\c1cccnc1
IC50 [8]: 4.37 µM (active) | CC50 [17]: 17.3 µM (active) | IC50 [9]: 2.99 µM (active) | AC50 [18]: 3.09 µM (active)

N#CCc1c(Cl)cnn(Cc2cccc3ccccc23)c1=O
IC50 [15]: 2.69 µM (active) | IC50 [16]: 2.69 µM (active)

O=[N+]([O-])Nc1nccn1Cc1ccc(Cl)nc1 [DEHYDROIMIDACLOPRID]
AC50 [19]: 39.8 µM (inconclusive)
